Reference: patent US8759301B2, “Gene fusion targeted therapy” (The Regents of The University of Michigan, priority 2010, dated 2014)
Entries after “also recorded” stand apart in the source; their conditions may differ. Read-outs that look alike come from different tables or passages of the source.

Assays:
AR [1] = target: AR (Homo sapiens, UniProt P10275); settings: VCaP, R1881 treated (10 nM, 16 hr, hormone deprived)
Method: For ERG ChIP, LNCaP, VCaP, RWPE+ERG, and RWPE+GUS cells grown in corresponding regular medium were used.
ChIP samples were prepared for sequencing using the Genomic DNA sample prep kit (Illumina) following manufacturers protocols. ChIP-Sequencing was performed using Illumina Genome Analyzer according to standard manufacturer's procedures. The raw sequencing image data were analyzed by the Illumina analysis pipeline, aligned to the unmasked human reference genome (NCBI v36, hg18) using the ELAND software (Illumina) to generate sequence reads of 25-32 bps.
It was first counted how many uniquely mapped reads are there in each sample and the ratio of the two counts was used as the normalizing factor to bring the total number of useable reads to the same level in both samples. Next each uniquely mapped read was extended directionally to form a 200 bp hypothetical DNA fragment (HDF) in each sample. 200 is assumed to be the average length of size-selected DNA pieces during sample preparation (175-225 bp).
Under the null hypothesis of no enrichment in the stimulated sample versus unstimulated samples, reads from both samples are assumed to land on the genome following the same Poisson distribution (after corrected for the read counts in the unstimulated sample). […] The probability of observing the read difference between two samples in each coverage region was calculated numerically. […]

AR mRNA = assay: Quantitative PCR of AR transcript in VCaP cells; type: cell-based
Method: All PCR experiments were performed in triplicates.

AR [2] = target: AR (Homo sapiens, UniProt P10275, T878A); settings: for number of AR binding sites: LNCaP R1881-treated
AR protein = assay: Immunoblot of AR protein in VCaP cells; type: cell-based
From the text: VCaP cells grown in DMEMglutamax (Invitrogen, Carlsbad, Calif.) supplemented with 10% FBS to 80% confluence. Cells were harvested with or without formaldehyde crosslinking, and nuclei were isolated subsequently. After washing with TBS twice, nuclei were lysed and sonicated in RIPA buffer containing protease inhibitors (Roche applied science, Indianapolis, Ind.). […] Mouse monoclonal anti-AR antibody (AR441) from Labvision (Thermo scientific, Fremont, Calif.) was used for Western experiment.

AR (Homo sapiens, UniProt P10275, T878A), sequence (P10275 whole entry T878A): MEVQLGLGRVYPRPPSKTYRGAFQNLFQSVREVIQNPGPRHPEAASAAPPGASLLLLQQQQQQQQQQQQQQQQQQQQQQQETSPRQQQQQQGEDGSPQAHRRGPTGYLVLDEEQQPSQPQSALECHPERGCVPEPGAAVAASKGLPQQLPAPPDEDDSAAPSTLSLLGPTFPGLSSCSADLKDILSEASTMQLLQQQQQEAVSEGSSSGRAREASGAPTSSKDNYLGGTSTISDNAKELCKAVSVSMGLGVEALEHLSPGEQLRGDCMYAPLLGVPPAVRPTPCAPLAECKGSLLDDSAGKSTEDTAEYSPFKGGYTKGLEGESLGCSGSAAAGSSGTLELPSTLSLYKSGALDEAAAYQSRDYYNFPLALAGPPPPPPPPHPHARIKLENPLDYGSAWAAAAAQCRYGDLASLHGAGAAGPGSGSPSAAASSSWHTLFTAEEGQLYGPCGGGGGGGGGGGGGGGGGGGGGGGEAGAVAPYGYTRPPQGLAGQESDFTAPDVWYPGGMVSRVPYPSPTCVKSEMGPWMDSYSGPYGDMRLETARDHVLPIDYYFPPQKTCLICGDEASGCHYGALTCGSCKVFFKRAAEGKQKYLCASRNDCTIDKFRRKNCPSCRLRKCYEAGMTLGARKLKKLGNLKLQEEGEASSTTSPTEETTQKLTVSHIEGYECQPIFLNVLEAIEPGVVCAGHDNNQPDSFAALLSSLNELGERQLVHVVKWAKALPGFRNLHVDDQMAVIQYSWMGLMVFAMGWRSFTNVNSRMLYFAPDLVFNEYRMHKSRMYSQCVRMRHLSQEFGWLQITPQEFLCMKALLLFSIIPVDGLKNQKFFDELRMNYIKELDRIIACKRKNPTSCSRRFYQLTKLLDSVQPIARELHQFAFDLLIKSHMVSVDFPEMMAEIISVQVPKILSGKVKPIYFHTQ
AR (Homo sapiens, UniProt P10275), sequence (P10275 whole entry): as the sequence (P10275 whole entry T878A) above, with A878T counted along it

C[C@]1(O)CC[C@H]2[C@@H]3CCC4=CC(=O)CCC4=C3C=C[C@@]21C [R1881, methyltrienolone]
Enriched Peaks, AR ChIP-Seq (AR [1]): 21376
AR mRNA expression (AR mRNA; VCaP cells): inhibits; also recorded: repression
repression of AR transcript (AR mRNA; hormone-deprived VCaP, 24 h after treatment, versus vehicle): over 10 folds
number of AR binding sites (AR [2]; distance to TSS 7 kb): 145
number of AR binding sites (AR [2]; distance to TSS 8 kb): 148
number of AR binding sites (AR [2]; distance to TSS 9 kb): 139
number of AR binding sites (AR [2]; distance to TSS 10 kb): 117
number of AR binding sites (AR [2]; distance to TSS 11 kb): 120
number of AR binding sites (AR [2]; distance to TSS 12 kb): 123
number of AR binding sites (AR [2]; distance to TSS 13 kb): 134
number of AR binding sites (AR [2]; distance to TSS 14 kb): 126
number of AR binding sites (AR [2]; distance to TSS 15 kb): 137
number of AR binding sites (AR [2]; distance to TSS 16 kb): 114
number of AR binding sites (AR [2]; distance to TSS 17 kb): 109
number of AR binding sites (AR [2]; distance to TSS 18 kb): 107
number of AR binding sites (AR [2]; distance to TSS 19 kb): 109
number of AR binding sites (AR [2]; distance to TSS 20 kb): 97
number of AR binding sites (AR [2]; distance to TSS 21 kb): 97
number of AR binding sites (AR [2]; distance to TSS 22 kb): 98
number of AR binding sites (AR [2]; distance to TSS 23 kb): 100
number of AR binding sites (AR [2]; distance to TSS 24 kb): 99
number of AR binding sites (AR [2]; distance to TSS 25 kb): 105
number of AR binding sites (AR [2]; distance to TSS 26 kb): 105
number of AR binding sites (AR [2]; distance to TSS 27 kb): 86
number of AR binding sites (AR [2]; distance to TSS 28 kb): 90
number of AR binding sites (AR [2]; distance to TSS 29 kb): 76
number of AR binding sites (AR [2]; distance to TSS 30 kb): 78
number of AR binding sites (AR [2]; distance to TSS 31 kb): 101
number of AR binding sites (AR [2]; distance to TSS 32 kb): 86
number of AR binding sites (AR [2]; distance to TSS 33 kb): 94
number of AR binding sites (AR [2]; distance to TSS 34 kb): 79
number of AR binding sites (AR [2]; distance to TSS 35 kb): 68
number of AR binding sites (AR [2]; distance to TSS 36 kb): 79
number of AR binding sites (AR [2]; distance to TSS 37 kb): 88
number of AR binding sites (AR [2]; distance to TSS 38 kb): 72
number of AR binding sites (AR [2]; distance to TSS 39 kb): 57
number of AR binding sites (AR [2]; distance to TSS 40 kb): 65
number of AR binding sites (AR [2]; distance to TSS 41 kb): 76
number of AR binding sites (AR [2]; distance to TSS 42 kb): 65
number of AR binding sites (AR [2]; distance to TSS 43 kb): 73
number of AR binding sites (AR [2]; distance to TSS 44 kb): 58
number of AR binding sites (AR [2]; distance to TSS 45 kb): 69
number of AR binding sites (AR [2]; distance to TSS 46 kb): 56
number of AR binding sites (AR [2]; distance to TSS 47 kb): 53
number of AR binding sites (AR [2]; distance to TSS 48 kb): 55
number of AR binding sites (AR [2]; distance to TSS 49 kb): 61
number of AR binding sites (AR [2]; distance to TSS 50 kb): 77
number of AR binding sites (AR [2]; distance to TSS 51 kb): 50
number of AR binding sites (AR [2]; distance to TSS 52 kb): 54
number of AR binding sites (AR [2]; distance to TSS 53 kb): 61
number of AR binding sites (AR [2]; distance to TSS 54 kb): 56
number of AR binding sites (AR [2]; distance to TSS 55 kb): 41
number of AR binding sites (AR [2]; distance to TSS 56 kb): 55
number of AR binding sites (AR [2]; distance to TSS 57 kb): 59
number of AR binding sites (AR [2]; distance to TSS 58 kb): 60
number of AR binding sites (AR [2]; distance to TSS 59 kb): 58
number of AR binding sites (AR [2]; distance to TSS 60 kb): 43
number of AR binding sites (AR [2]; distance to TSS 61 kb): 36
number of AR binding sites (AR [2]; distance to TSS 62 kb): 49
number of AR binding sites (AR [2]; distance to TSS 63 kb): 40
number of AR binding sites (AR [2]; distance to TSS 64 kb): 52
number of AR binding sites (AR [2]; distance to TSS 65 kb): 50
number of AR binding sites (AR [2]; distance to TSS 66 kb): 39
number of AR binding sites (AR [2]; distance to TSS 67 kb): 37
number of AR binding sites (AR [2]; distance to TSS 68 kb): 47
number of AR binding sites (AR [2]; distance to TSS 69 kb): 47
number of AR binding sites (AR [2]; distance to TSS 70 kb): 45
number of AR binding sites (AR [2]; distance to TSS 71 kb): 43
number of AR binding sites (AR [2]; distance to TSS 72 kb): 43
number of AR binding sites (AR [2]; distance to TSS 73 kb): 57
number of AR binding sites (AR [2]; distance to TSS 74 kb): 37
number of AR binding sites (AR [2]; distance to TSS 75 kb): 34
number of AR binding sites (AR [2]; distance to TSS 76 kb): 39
number of AR binding sites (AR [2]; distance to TSS 77 kb): 48
number of AR binding sites (AR [2]; distance to TSS 78 kb): 31
number of AR binding sites (AR [2]; distance to TSS 79 kb): 37
number of AR binding sites (AR [2]; distance to TSS 80 kb): 36
number of AR binding sites (AR [2]; distance to TSS 81 kb): 35
number of AR binding sites (AR [2]; distance to TSS 82 kb): 49
number of AR binding sites (AR [2]; distance to TSS 83 kb): 39
number of AR binding sites (AR [2]; distance to TSS 84 kb): 32
number of AR binding sites (AR [2]; distance to TSS 85 kb): 39
number of AR binding sites (AR [2]; distance to TSS 86 kb): 40
number of AR binding sites (AR [2]; distance to TSS 87 kb): 31
number of AR binding sites (AR [2]; distance to TSS 88 kb): 34
number of AR binding sites (AR [2]; distance to TSS 89 kb): 33
number of AR binding sites (AR [2]; distance to TSS 90 kb): 33
number of AR binding sites (AR [2]; distance to TSS 91 kb): 41
number of AR binding sites (AR [2]; distance to TSS 92 kb): 28
number of AR binding sites (AR [2]; distance to TSS 93 kb): 36
number of AR binding sites (AR [2]; distance to TSS 94 kb): 27
number of AR binding sites (AR [2]; distance to TSS 95 kb): 28
number of AR binding sites (AR [2]; distance to TSS 96 kb): 35
number of AR binding sites (AR [2]; distance to TSS 97 kb): 27
number of AR binding sites (AR [2]; distance to TSS 98 kb): 27
number of AR binding sites (AR [2]; distance to TSS 99 kb): 34
number of AR binding sites (AR [2]; distance to TSS 100 kb): 19
number of AR binding sites (AR [2]; distance to TSS 101 kb): 24
number of AR binding sites (AR [2]; distance to TSS 102 kb): 23
number of AR binding sites (AR [2]; distance to TSS 103 kb): 28
number of AR binding sites (AR [2]; distance to TSS 104 kb): 30
number of AR binding sites (AR [2]; distance to TSS 105 kb): 20
number of AR binding sites (AR [2]; distance to TSS 106 kb): 31
Enriched Peaks, AR ChIP-Seq (AR [2]; LNCaP, R1881 treated (10 nM, 16 hr, hormone deprived)): 44536
AR protein expression (AR protein): inhibits
